# Read-outs that look alike come from different tables or passages of the source.
# What was measured:
# [1] = tested on: transient middle cerebral artery occlusion; assay: Transient focal cerebral ischemia (tMCAO), grip strength test; format: in vivo, male C57BL/6 mice; details: mice, 0.05 mg/kg or 0.1 mg/kg ip at onset of reperfusion, 24 and 48 h after treatment
# Protocol: Transient occlusion of the distal branch of the middle cerebral artery (tMCAO) was induced in male C57BL/6 mice (9–11 weeks old, Charles River), as described previously. Mice were anesthetized with 4% isoflurane for induction and 1.5–2% isoflurane for maintenance (in 79% N2/21% O2). After drilling a small hole on the temporal bone at the level of the distal portion of the middle cerebral artery (MCA), the artery was compressed for 60 min, with a 30-G needle by using a micromanipulator. Body temperature was maintained between 36.5–37.5 °C and cerebral blood flow was monitored using laser-Doppler flowmetry to confirm MCA occlusion. Buprenorphine (0.05–0.1 mg/kg) was administered subcutaneously immediately before the procedure. A total of 33 mice were subjected to tMCAO, according to the study design. A power analysis was performed to determine the sample size (significance level set at 0.05, and the power set at 0.8 (80%)), which identified the need for 8 mice to be included in each experimental group. […]
# Neurobehavioral studies were performed to evaluate ischemic outcomes and monitor motor function after focal ischemia. […] A total of six trials were conducted for each test and the strength value (expressed in grams) was calculated as the mean of all six trials.
# [2] = Pharmacokinetics study, plasma concentration after intravenous bolus (LC-MS/MS); format: in vivo, male Wistar rats; details: rat; for clearance / Vd / k el / half-life / Cmax / AUC(0-t) / C0: male, Wistar; for clearance / Vd / k el / half-life / Cmax / AUC(0-t) / C0 / Clast: plasma; for clearance / Vd / k el / Cmax / AUC(0-t) / C0 / Clast: mean ± SE n=6; for clearance: read-out: Cl (terminal clearance) (converted); for Vd: read-out: Vd (volume of distribution); for k el: read-out: kel (terminal elimination constant) (converted); for half-life: iv; for AUC(0-t): read-out: AUC0–8h; for C0: read-out: C0 (initial concentration)
# Protocol: For the study of the variation of the concentration of ISQ-201 in plasma, male Wistar rats (10–12 weeks, Charles River) were randomly divided into three groups (n = 6 per group) and treated intravenously, as a bolus with different concentrations of ISQ-201 (0.07, 0.25, and 1.0 mg/kg, respectively). Plasma samples were taken 0.25, 0.5, 1, 2, 4, and 8 h after the administration and the ISQ-201 concentration was determined by LC–MS/MS analysis. A noncompartmental analysis was performed for the determination of the toxicokinetic parameters, using the Phoenix 64 WinNonlin program (version 8.0). This study was carried out by Swiss BioQuant AG (Reinach, Switzerland).
# Study of the variation of ISQ-201 concentration after a single bolus intravenous administration was carried out with different doses of ISQ-201 (0.07, 0.25, and 1.00 mg/kg). Plasma samples were collected 0.25, 0.5, 1, 2, 4, and 8 h after administration, and the ISQ-201 concentration was determined through LC/MS–MS (Figure 7). Pharmacokinetic parameters were calculated through a non-compartmental analysis (Table 2).
compound,measurement,setting,value
CC(C)[C@H]1CC[C@H]2[C@@H]3CCC4=C/C(=[N+](\C)[O-])CC[C@]4(C)[C@H]3CC[C@]12C [ISQ-201],motor deficit (grip strength) vs vehicle,[1],significant decrease
same,clearance,[2]; iv bolus 0.07 mg/kg,1.75 mL/min
same,Vd,[2]; iv bolus 0.07 mg/kg,0.364 ± 0.11 L
same,k el,[2]; iv bolus 0.07 mg/kg,8.81e-05 s⁻¹
same,clearance,[2]; iv bolus 0.25 mg/kg,0.923 mL/min
same,Vd,[2]; iv bolus 0.25 mg/kg,0.166 ± 0.027 L
same,k el,[2]; iv bolus 0.25 mg/kg,9.53e-05 s⁻¹
same,clearance,[2]; iv bolus 1.00 mg/kg,0.895 mL/min
same,Vd,[2]; iv bolus 1.00 mg/kg,0.3 ± 0.103 L
same,k el,[2]; iv bolus 1.00 mg/kg,7.94e-05 s⁻¹
same,half-life,"[2]; 0.07 mg/kg, iv bolus 0.07 mg/kg, mean ± SE n=6, read-out: t1/2 (half-life) (converted)",1.66 ± 0.1 h
same,half-life,"[2]; 0.25 mg/kg, iv bolus 0.25 mg/kg, mean ± SE n=6, read-out: t1/2 (half-life) (converted)",1.51 ± 0.12 h
same,half-life,"[2]; 1 mg/kg, iv bolus 1.00 mg/kg, mean ± SE n=6, read-out: t1/2 (half-life) (converted)",2.2 ± 0.53 h
same,half-life,"[2]; iv bolus, 0.07–1.00 mg/kg, read-out: half-life",1.5 to 2 h
same,Cmax,[2]; iv bolus 0.07 mg/kg,50.6 ± 7.4 ng/mL
same,AUC(0-t),[2]; iv bolus 0.07 mg/kg,81.1 ± 9.5 ng·h/mL
same,C0,[2]; iv bolus 0.07 mg/kg,74.6 ± 12.2 ng/mL
same,Cmax,[2]; iv bolus 0.25 mg/kg,330 ± 51.2 ng/mL
same,AUC(0-t),[2]; iv bolus 0.25 mg/kg,477 ± 42 ng·h/mL
same,C0,[2]; iv bolus 0.25 mg/kg,490 ± 80.2 ng/mL
same,Cmax,[2]; iv bolus 1.00 mg/kg,1210 ± 300 ng/mL
same,AUC(0-t),[2]; iv bolus 1.00 mg/kg,2030 ± 429 ng·h/mL
same,C0,[2]; iv bolus 1.00 mg/kg,1690 ± 424 ng/mL
same,Clast,[2]; iv bolus 0.07 mg/kg,1.53 ± 0.09 ng/mL
same,Clast,[2]; iv bolus 0.25 mg/kg,7.49 ± 0.75 ng/mL
same,Clast,[2]; iv bolus 1.00 mg/kg,42.03 ± 4.42 ng/mL
same,Cmax and AUC0-8h relation to dose,"[2]; iv bolus, whole studied range 0.07–1.00 mg/kg",linearly related to the dose
